pIC50: −log10 of the molar value. Values joined by “and” are separate entries in the source; they are usually repeats but may differ in a detail not shown here. Identical values can stand only once. Like-named read-outs stand apart in the source and are kept apart here.
Assays:
[1] = tested on: human prostate PC3-mm2 tumor cell line; test: In vitro cell culture growth assay (MTS), PC3-mm2; assay type: cell-based; conditions: Homo sapiens, PC3MM2, 72 h, MTS cell growth assay, three days after drug treatment, read-out: IC50 PC3-mm2
PI3K-α = PI3K-α (Homo sapiens, UniProt P42336); test: PI3K-alpha fluorescence polarization assay; conditions: read-out: IC50 PI3Kα
PI3K-γ = PI3K-γ (Homo sapiens, UniProt P48736); test: PI3K-gamma fluorescence polarization assay; conditions: read-out: IC50 PI3Kγ
Human mTOR (FLAG-TOR) = Human mTOR (FLAG-TOR) (Homo sapiens, UniProt P42345); test: mTOR kinase assay (DELFIA format, purified enzyme); assay type: biochemical; conditions: read-out: IC50 mTOR
[2] = tested on: human breast MDA-MB-361 tumor cell line; test: In vitro cell culture growth assay (MTS), MDA-MB-361; assay type: cell-based; conditions: Homo sapiens, MDA-MB-361, 72 h, MTS cell growth assay, three days after drug treatment, read-out: IC50 MDA-MB-361

Sequence of Human mTOR (FLAG-TOR) (P42345 1360-2549 limits assumed): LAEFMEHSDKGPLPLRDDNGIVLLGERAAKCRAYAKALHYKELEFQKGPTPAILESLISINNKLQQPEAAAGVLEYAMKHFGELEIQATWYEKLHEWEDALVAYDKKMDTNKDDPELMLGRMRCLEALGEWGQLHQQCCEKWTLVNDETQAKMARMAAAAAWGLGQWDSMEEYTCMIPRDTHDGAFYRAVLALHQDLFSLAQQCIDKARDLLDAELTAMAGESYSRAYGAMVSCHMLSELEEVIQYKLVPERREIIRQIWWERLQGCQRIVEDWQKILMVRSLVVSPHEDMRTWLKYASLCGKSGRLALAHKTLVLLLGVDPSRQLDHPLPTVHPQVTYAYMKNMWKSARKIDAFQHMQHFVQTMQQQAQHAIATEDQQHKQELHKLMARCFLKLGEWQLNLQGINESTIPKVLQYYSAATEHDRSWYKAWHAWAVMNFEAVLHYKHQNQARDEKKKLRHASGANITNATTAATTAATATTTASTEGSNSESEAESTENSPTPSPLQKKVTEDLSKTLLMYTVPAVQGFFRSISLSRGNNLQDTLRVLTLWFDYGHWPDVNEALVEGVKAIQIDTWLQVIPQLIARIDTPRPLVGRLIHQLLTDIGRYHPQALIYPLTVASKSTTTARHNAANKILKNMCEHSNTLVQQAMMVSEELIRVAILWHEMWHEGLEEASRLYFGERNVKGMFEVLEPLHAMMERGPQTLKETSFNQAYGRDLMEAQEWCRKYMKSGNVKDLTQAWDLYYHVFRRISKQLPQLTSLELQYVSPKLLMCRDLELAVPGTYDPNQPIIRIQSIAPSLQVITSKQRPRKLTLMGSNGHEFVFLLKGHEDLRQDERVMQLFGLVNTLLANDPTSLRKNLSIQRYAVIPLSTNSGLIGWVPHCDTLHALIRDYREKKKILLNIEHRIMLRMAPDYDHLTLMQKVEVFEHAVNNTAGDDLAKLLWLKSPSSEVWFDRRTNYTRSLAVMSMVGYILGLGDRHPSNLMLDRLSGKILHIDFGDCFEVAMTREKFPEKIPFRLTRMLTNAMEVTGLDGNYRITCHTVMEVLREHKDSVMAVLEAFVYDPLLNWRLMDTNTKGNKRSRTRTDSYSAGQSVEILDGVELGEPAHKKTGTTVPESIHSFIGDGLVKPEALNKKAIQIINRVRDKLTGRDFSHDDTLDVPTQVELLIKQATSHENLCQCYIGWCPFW
Sequence of PI3K-α (P42336 whole entry, species assumed): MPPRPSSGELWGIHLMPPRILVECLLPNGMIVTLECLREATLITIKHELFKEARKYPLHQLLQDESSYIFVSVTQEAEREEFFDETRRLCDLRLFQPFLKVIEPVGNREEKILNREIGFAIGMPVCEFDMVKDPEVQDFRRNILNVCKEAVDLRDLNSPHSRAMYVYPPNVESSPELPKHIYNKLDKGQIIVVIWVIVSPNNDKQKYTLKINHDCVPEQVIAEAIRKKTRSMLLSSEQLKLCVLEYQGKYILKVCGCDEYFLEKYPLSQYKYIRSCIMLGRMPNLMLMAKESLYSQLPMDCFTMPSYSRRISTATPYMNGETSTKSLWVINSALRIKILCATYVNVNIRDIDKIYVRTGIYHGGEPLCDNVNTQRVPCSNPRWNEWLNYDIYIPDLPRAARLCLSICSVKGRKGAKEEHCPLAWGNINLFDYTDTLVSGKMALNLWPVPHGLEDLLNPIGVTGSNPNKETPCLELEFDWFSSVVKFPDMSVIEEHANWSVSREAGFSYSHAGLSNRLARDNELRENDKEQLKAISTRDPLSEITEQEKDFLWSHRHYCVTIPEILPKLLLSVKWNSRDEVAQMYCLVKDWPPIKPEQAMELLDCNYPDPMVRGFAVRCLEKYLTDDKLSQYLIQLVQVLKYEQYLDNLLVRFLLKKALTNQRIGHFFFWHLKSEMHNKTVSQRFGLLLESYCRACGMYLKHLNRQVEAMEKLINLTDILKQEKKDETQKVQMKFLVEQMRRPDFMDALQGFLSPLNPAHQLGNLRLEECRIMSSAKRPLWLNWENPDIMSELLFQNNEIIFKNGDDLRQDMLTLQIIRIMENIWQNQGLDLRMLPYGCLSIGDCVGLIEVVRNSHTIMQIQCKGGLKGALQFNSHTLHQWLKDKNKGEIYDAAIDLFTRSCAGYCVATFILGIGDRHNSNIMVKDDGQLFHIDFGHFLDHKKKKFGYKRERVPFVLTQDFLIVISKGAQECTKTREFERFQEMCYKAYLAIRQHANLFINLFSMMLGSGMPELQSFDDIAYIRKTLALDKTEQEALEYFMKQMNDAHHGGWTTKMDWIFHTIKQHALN
Sequence of PI3K-α (P27986 whole entry partner, species assumed): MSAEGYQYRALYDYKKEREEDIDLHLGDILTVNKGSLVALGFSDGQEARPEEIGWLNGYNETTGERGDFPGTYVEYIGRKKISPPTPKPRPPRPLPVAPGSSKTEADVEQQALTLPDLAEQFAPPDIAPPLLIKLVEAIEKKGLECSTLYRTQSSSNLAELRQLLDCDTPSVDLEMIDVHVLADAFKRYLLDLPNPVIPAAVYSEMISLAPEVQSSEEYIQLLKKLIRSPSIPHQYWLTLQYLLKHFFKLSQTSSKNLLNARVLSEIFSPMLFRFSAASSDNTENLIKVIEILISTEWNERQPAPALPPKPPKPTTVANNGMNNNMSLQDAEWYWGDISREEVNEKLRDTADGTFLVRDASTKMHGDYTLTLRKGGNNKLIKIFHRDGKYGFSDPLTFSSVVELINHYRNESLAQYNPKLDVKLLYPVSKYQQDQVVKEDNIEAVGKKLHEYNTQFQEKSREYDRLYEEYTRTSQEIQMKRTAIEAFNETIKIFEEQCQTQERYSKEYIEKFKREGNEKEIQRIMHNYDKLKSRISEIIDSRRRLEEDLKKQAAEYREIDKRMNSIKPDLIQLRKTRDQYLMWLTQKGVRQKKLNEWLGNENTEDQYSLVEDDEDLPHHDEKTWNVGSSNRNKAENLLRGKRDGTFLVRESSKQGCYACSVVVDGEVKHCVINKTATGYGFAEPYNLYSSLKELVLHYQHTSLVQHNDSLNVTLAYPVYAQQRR
Sequence of PI3K-γ (P48736 whole entry, species assumed): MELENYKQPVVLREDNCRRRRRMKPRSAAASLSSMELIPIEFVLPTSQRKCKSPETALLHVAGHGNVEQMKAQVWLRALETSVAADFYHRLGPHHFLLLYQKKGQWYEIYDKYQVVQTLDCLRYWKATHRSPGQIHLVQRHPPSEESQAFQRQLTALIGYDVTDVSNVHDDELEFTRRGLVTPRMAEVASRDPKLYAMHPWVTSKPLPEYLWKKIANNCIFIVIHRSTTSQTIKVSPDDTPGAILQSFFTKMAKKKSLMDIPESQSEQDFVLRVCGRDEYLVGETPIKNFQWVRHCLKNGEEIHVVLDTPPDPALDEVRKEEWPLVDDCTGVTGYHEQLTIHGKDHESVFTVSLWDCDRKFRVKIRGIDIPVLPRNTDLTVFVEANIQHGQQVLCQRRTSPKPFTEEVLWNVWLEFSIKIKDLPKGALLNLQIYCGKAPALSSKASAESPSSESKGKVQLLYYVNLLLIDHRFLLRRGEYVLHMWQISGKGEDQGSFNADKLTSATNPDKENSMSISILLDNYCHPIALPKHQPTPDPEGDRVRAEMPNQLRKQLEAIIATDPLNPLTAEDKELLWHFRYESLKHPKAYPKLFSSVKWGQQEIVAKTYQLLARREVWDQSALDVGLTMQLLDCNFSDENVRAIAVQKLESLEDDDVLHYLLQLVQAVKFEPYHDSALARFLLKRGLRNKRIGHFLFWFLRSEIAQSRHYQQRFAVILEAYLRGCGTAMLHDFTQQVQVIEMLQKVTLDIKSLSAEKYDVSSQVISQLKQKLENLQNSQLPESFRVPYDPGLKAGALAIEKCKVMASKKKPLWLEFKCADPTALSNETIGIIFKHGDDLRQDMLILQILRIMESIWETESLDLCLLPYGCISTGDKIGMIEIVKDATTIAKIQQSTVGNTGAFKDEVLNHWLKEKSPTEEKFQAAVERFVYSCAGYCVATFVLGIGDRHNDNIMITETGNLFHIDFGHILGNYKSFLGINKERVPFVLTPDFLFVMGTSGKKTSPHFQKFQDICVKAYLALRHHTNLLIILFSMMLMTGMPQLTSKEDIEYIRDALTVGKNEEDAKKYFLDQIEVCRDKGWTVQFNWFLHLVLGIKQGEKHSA

SMILES | pIC50 [1] | pIC50 (PI3K-α) | pIC50 (PI3K-γ) | pIC50 (Human mTOR (FLAG-TOR)) | pIC50 [2] | pIC50 ([1]; PC3-mm2 cells) | pIC50 (PI3K-γ; listed as 533) | pIC50 ([2]; MDA-MB-361 cells) | pIC50 (PI3K-γ; listed as 532) | pIC50 (PI3K-α; listed as 529) | pIC50 (PI3K-γ; listed as 529) | pIC50 (PI3K-α; listed as 527) | pIC50 (PI3K-α; listed as 535)
CCc1nc(-c2ccc(NC(=O)Nc3ccc(C(=O)N4CCNC(C)(C)C4)cc3)cc2)nc(N2CCOCC2)n1 [Example 298, 1-{4-[(3,3-dimethylpiperazin-1-yl)carbonyl]phenyl}-3-[4-(4-ethyl-6-morpholin-4-yl-1,3,5-triazin-2-yl)phenyl]urea] | 6.78 | 8.70 | 7.62 | 7.68 | 7.42 | – | – | – | – | – | – | – | –
CCc1nc(-c2ccc(NC(=O)Nc3ccc(C(=O)NC4CN(C)C4)cc3)cc2)nc(N2CCOCC2)n1 [Example 299, 4-({[4-(4-ethyl-6-morpholin-4-yl-1,3,5-triazin-2-yl)phenyl]carbamoyl}amino)-N-(1-methylazetidin-3-yl)benzamide] | 6.66 | 8.52 | 7.47 | 7.10 | 7.14 | – | – | – | – | – | – | – | –
CC(C)c1nc(-c2ccc(NC(=O)Nc3ccc(C(=O)O)cc3)cc2)nc(N2CCOCC2)n1 [Example 301, 4-[({4-[4-(1-methylethyl)-6-morpholin-4-yl-1,3,5-triazin-2-yl]phenyl}carbamoyl)amino]benzoic acid] | 6.12 | 7.68 | 7.24 | 9.10 | 6.37 | – | – | – | – | – | – | – | –
CC(C)c1nc(-c2ccc(NC(=O)Nc3ccc(C(=O)NCCN(C)C)cc3)cc2)nc(N2CCOCC2)n1 [Example 305, N-[2-(dimethylamino)ethyl]-4-[({4-[4-(1-methylethyl)-6-morpholin-4-yl-1,3,5-triazin-2-yl]phenyl}carbamoyl)amino]benzamide] | 7.34 | 9.00 | 7.74 | 9.22 | 8.40 | – | – | – | – | – | – | – | –
CC(C)c1nc(-c2ccc(NC(=O)Nc3ccc(C(=O)N(C)CCN(C)C)cc3)cc2)nc(N2CCOCC2)n1 [Example 306, N-[2-(dimethylamino)ethyl]-N-methyl-4-[({4-[4-(1-methylethyl)-6-morpholin-4-yl-1,3,5-triazin-2-yl]phenyl}carbamoyl)amino]benzamide] | 7.52 | 9.00 | 7.72 | 8.68 | 8.15 | – | – | – | – | – | – | – | –
CC(C)c1nc(-c2ccc(NC(=O)Nc3ccc(C(=O)Nc4ccncc4)cc3)cc2)nc(N2CCOCC2)n1 [Example 309, 4-[({4-[4-(1-methylethyl)-6-morpholin-4-yl-1,3,5-triazin-2-yl]phenyl}carbamoyl)amino]-N-pyridin-4-ylbenzamide] | 6.96 | 7.92 | 7.02 | 8.46 | 7.19 | – | – | – | – | – | – | – | –
CC(C)c1nc(-c2ccc(NC(=O)Nc3ccc(C(=O)Nc4cccnc4)cc3)cc2)nc(N2CCOCC2)n1 [Example 310, 4-[({4-[4-(1-methylethyl)-6-morpholin-4-yl-1,3,5-triazin-2-yl]phenyl}carbamoyl)amino]-N-pyridin-3-ylbenzamide] | 6.93 | 7.85 | 7.09 | 8.23 | 7.36 | – | – | – | – | – | – | – | –
CC(C)c1nc(-c2ccc(NC(=O)Nc3ccc(C(=O)NC4CCC4)cc3)cc2)nc(N2CCOCC2)n1 [Example 311, N-cyclobutyl-4-[({4-[4-(1-methylethyl)-6-morpholin-4-yl-1,3,5-triazin-2-yl]phenyl}carbamoyl)amino]benzamide] | 6.44 | 7.40 | 6.90 | 7.92 | 6.90 | – | – | – | – | – | – | – | –
CCc1nc(-c2ccc(NC(=O)Nc3ccc(C(=O)N4CCC(c5ccccc5)CC4)cc3)cc2)nc(N2CCOCC2)n1 [Example 320, 1-[4-(4-ethyl-6-morpholin-4-yl-1,3,5-triazin-2-yl)phenyl]-3-{4-[(4-phenylpiperidin-1-yl)carbonyl]phenyl}urea] | 7.13 | 8.48 | 7.60 | 7.89 | 7.49 | – | – | – | – | – | – | – | –
O=C(Nc1ccc(-c2nc(N3CCOCC3)nc(N3C4CCC3COC4)n2)cc1)Nc1ccnc(-c2cccnc2)c1 [Example 336, 1-(2,3′-bipyridin-4-yl)-3-{4-[4-morpholin-4-yl-6-(3-oxa-8-azabicyclo[3.2.1]oct-8-yl)-1,3,5-triazin-2-yl]phenyl}urea] | 7.35 | 7.40 | 7.36 | 8.44 and 8.46 | 7.25 | 7.35 | – | – | – | – | – | – | –
Cc1ccc(-c2nc(-c3ccc(NC(=O)Nc4ccc(C(=O)N(C)CCN(C)C)cc4)cc3)nc(N3CCOCC3)n2)cc1 [Example 338, N-[2-(dimethylamino)ethyl]-N-methyl-4-[({4-[4-(4-methylphenyl)-6-morpholin-4-yl-1,3,5-triazin-2-yl]phenyl}carbamoyl)amino]benzamide] | 6.58 | 8.52 | 7.11 | 7.66 and 7.72 | 6.91 | 6.58 | – | – | 7.12 | – | – | – | –
CN(C)C1CCN(c2ccc(NC(=O)Nc3ccc(-c4nc(-c5ccccc5)nc(N5CCOCC5)n4)cc3)cc2)CC1 [Example 345, 1-{4-[4-(dimethylamino)piperidin-1-yl]phenyl}-3-[4-(4-morpholin-4-yl-6-phenyl-1,3,5-triazin-2-yl)phenyl]urea] | 6.40 | 7.37 | 6.95 | 7.10 and 7.09 | 6.26 | 6.40 | – | – | – | – | – | – | 7.36

Continued, values first:

pIC50 [1] | pIC50 (PI3K-α) | pIC50 (PI3K-γ) | pIC50 (Human mTOR (FLAG-TOR)) | pIC50 [2] | pIC50 ([1]; PC3-mm2 cells) | pIC50 (PI3K-γ; listed as 533) | pIC50 ([2]; MDA-MB-361 cells) | pIC50 (PI3K-γ; listed as 532) | pIC50 (PI3K-α; listed as 529) | pIC50 (PI3K-γ; listed as 529) | pIC50 (PI3K-α; listed as 527) | pIC50 (PI3K-α; listed as 535) | SMILES
6.27 | 7.46 | 6.58 | 7.44 | 6.52 | – | – | – | – | – | – | – | – | CC(O)c1ccc(NC(=O)Nc2ccc(-c3nc(N4CCOCC4)nc(N4C[C@H]5C[C@@H]4CN5C(=O)OC(C)(C)C)n3)cc2)cc1 (stereo partly drawn) [Example 302, tert-butyl-(1R,4R)-5-{4-[4-({[4-(1-hydroxyethyl)phenyl]carbamoyl}amino)phenyl]-6-morpholin-4-yl-1,3,5-triazin-2-yl}-2,5-diazabicyclo[2.2.1]heptane-2-carboxylate]
7.28 | 8.52 | 7.85 | 8.54 | 8.40 | – | – | – | – | – | – | – | – | CC(C)c1nc(-c2ccc(NC(=O)Nc3ccc(C(=O)N4CCC(N(C)C)CC4)cc3)cc2)nc(N2CCOCC2)n1 [Example 308, 1-(4-{[4-(dimethylamino)piperidin-1-yl]carbonyl}phenyl)-3-{4-[4-(1-methylethyl)-6-morpholin-4-yl-1,3,5-triazin-2-yl]phenyl}urea]
6.49 | 7.60 | 6.94 | 7.78 | 6.97 | – | – | – | – | – | – | – | – | CCc1nc(-c2ccc(NC(=O)Nc3ccc(C(=O)NCc4ccncc4)cc3)cc2)nc(N2CCOCC2)n1 [Example 321, 4-({[4-(4-ethyl-6-morpholin-4-yl-1,3,5-triazin-2-yl)phenyl]carbamoyl}amino)-N-(pyridin-4-ylmethyl)benzamide]
7.07 | 8.62 | 7.52 | 8.22 | 7.89 | – | – | – | – | – | – | – | – | CC(C)Cc1nc(-c2ccc(NC(=O)Nc3ccc(C(=O)N4CCN(C)CC4)cc3)cc2)nc(N2CCOCC2)n1 [Example 322, 1-{4-[(4-methylpiperazin-1-yl)carbonyl]phenyl}-3-{4-[4-(2-methylpropyl)-6-morpholin-4-yl-1,3,5-triazin-2-yl]phenyl}urea]
7.46 | 9.00 | 7.66 | 8.28 | 8.40 | – | – | – | – | – | – | – | – | CC(C)Cc1nc(-c2ccc(NC(=O)Nc3ccc(C(=O)N(C)CCN(C)C)cc3)cc2)nc(N2CCOCC2)n1 [Example 324, N-[2-(dimethylamino)ethyl]-N-methyl-4-[({4-[4-(2-methylpropyl)-6-morpholin-4-yl-1,3,5-triazin-2-yl]phenyl}carbamoyl)amino]benzamide]
6.43 | 8.15 | 7.01 | 7.15 | 6.85 | 6.43 | 7.01 | 6.85 | – | – | – | – | – | Cc1ccc(-c2nc(-c3ccc(NC(=O)Nc4ccc(C(=O)N5CCN(C)CC5)cc4)cc3)nc(N3CCOCC3)n2)cc1 [Example 337, 1-{4-[4-(4-methylphenyl)-6-morpholin-4-yl-1,3,5-triazin-2-yl]phenyl}-3-{4-[(4-methylpiperazin-1-yl)carbonyl]phenyl}urea]
6.63 | 8.00 | 7.32 | 7.92 and 7.81 | 6.82 | 6.63 | – | – | – | 7.98 | 7.31 | – | – | CCc1nc(-c2ccc(NC(=O)Nc3ccc(N4CCC(N(C)C)CC4)cc3)cc2)nc(N2CCOCC2)n1 [Example 341, 1-{4-[4-(dimethylamino)piperidin-1-yl]phenyl}-3-[4-(4-ethyl-6-morpholin-4-yl-1,3,5-triazin-2-yl)phenyl]urea]
5.61 | 7.70 | 6.90 | 8.18 and 8.03 | 5.90 | 5.61 | – | 5.90 | – | – | – | 7.69 | – | Cc1ccc(-c2nc(-c3ccc(NC(=O)Nc4ccc(C(=O)O)cc4)cc3)nc(N3CCOCC3)n2)cc1 [Example 342, 4-[({4-[4-(4-methylphenyl)-6-morpholin-4-yl-1,3,5-triazin-2-yl]phenyl}carbamoyl)amino]benzoic acid]
